Measurements from the supplement of paper PMC11061612.

Tests used:
[1] = tested on: KG-1 (Acute Myeloid Leukemia); test: Bliss excess, mean over the matrix (fraction); higher = more synergy
Method in brief: (§1)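 Cell lines grown in DMEM/F12 or RPMI with 10% FBS were plated in 1536-well plates and held 24 hours at 37°C, 5% CO2 before 72 hours of exposure to two-drug dose matrices, with DMSO typically at 0.2%. CellTiter-Glo 2.0 luminescence gave viability, which was converted to inhibition. Vehicle wells were set to 0 and blank wells to 1. Combination Emax is the second-highest inhibition in the matrix, and Bliss excess is the observed combination effect minus the expected EA + EB − EA·EB, where EA and EB are the single-agent effects.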

[2] = tested on: SNG-M (Endometrial Carcinoma); test: as above
Method in brief: as §1

[3] = tested on: SK-MEL-1 (Melanoma); test: as above
Method in brief: as §1

[4] = tested on: ETK-1 (Biliary Tract Carcinoma); test: as above
Method in brief: as §1

[5] = tested on: GDM-1 (Acute Myeloid Leukemia); test: as above
Method in brief: as §1

[6] = tested on: NCI-H1688 (Small Cell Lung Carcinoma); test: as above
Method in brief: as §1

[7] = tested on: NOMO-1 (Acute Myeloid Leukemia); test: as above
Method in brief: as §1

[8] = tested on: FU-OV-1 (Ovarian Carcinoma); test: as above
Method in brief: as §1

[9] = tested on: SLVL (B-Cell Non-Hodgkin's Lymphoma); test: as above
Method in brief: as §1

[10] = tested on: EKVX (Non-Small Cell Lung Carcinoma); test: as above
Method in brief: as §1

[11] = tested on: MEG-01 (Chronic Myelogenous Leukemia); test: as above
Method in brief: as §1

[12] = tested on: JHH-6 (Hepatocellular Carcinoma); test: as above
Method in brief: as §1

[13] = tested on: CS1 (Chondrosarcoma); test: as above
Method in brief: as §1

[14] = tested on: FU-OV-1 (Ovarian Carcinoma); test: combination Emax (second highest fraction inhibited in the dose matrix, 72 h); higher = more inhibition; extreme values may be limits of the assay
Method in brief: as §1
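Throughout, for Bliss excess, mean over the matrix: after 72 h of two-drug dosing.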

`CC1(C)CCC(CN2CCN(c3ccc(C(=O)NS(=O)(=O)c4ccc(NCC5CCOCC5)c([N+](=O)[O-])c4)c(Oc4cnc5[nH]ccc5c4)c3)CC2)=C(c2ccc(Cl)cc2)C1` [Venetoclax] + CN(C)CCCOc1ccc(-c2ccc3ncc4c(c3c2)n(C2CCOCC2)c(=O)n4C)cn1 [AZD0156] (first compound max 1 µM, 7x7, partner max 1 µM) showed a Bliss excess [1] of 0.0741, a Bliss excess [2] of -0.06 and a Bliss excess [3] of -0.0397. For the same molecule, the Bliss excess [4] was -0.021, the Bliss excess [5] was -0.0235 and the Bliss excess [6] was 0.0209. The Bliss excess [7] was 0.0226, the Bliss excess [8] was -0.0223 and the Bliss excess [9] was 0.058. The Bliss excess [10] was -0.0365, the Bliss excess [11] was -0.0291 and the Bliss excess [12] was -0.0391. For the same molecule, the Bliss excess [13] was 0.0599 and the “combination Emax” value [14] was 0.291.

`CN(CCO)CC[C@H](CSc1ccccc1)Nc1ccc(S(=O)(=O)NC(=O)c2ccc(N3CCC([C@@H](O)c4ccccc4-c4ccc(Cl)cc4)CC3)cc2)cc1S(=O)(=O)C(F)(F)F` [AZD4320] + Cn1cnc2c(F)c(Nc3ccc(Br)cc3Cl)c(C(=O)NOCCO)cc21 [Selumetinib] (first compound max 1 µM, 7x7, partner max 3 µM) showed a Bliss excess [1] of 0.0452, a Bliss excess [2] of 0.0038 and a Bliss excess [3] of 0.0228. For the same molecule, the Bliss excess [4] was 0.0502, the Bliss excess [5] was 0.0223 and the Bliss excess [6] was 0.0285. It also gave a Bliss excess [7] of 0.143, a Bliss excess [8] of 0.0354 and a Bliss excess [9] of -0.401. It also gave a Bliss excess [10] of 0.0109, a Bliss excess [11] of 0.0005 and a Bliss excess [12] of 0.0455. The Bliss excess [13] was -0.0054 and the “combination Emax” value [14] was 0.619.

In the case of `CC1(C)CCC(CN2CCN(c3ccc(C(=O)NS(=O)(=O)c4ccc(NCC5CCOCC5)c([N+](=O)[O-])c4)c(Oc4cnc5[nH]ccc5c4)c3)CC2)=C(c2ccc(Cl)cc2)C1` [Venetoclax] + Cn1cnc2c(F)c(Nc3ccc(Br)cc3Cl)c(C(=O)NOCCO)cc21 [Selumetinib] (first compound max 1 µM, 7x7, partner max 3 µM), the Bliss excess [1] is reported as 0.0735, the Bliss excess [2] is reported as -0.0282 and the Bliss excess [3] is reported as -0.0332. It also gave a Bliss excess [4] of -0.0333, a Bliss excess [5] of 0.0554 and a Bliss excess [6] of -0.0333. The Bliss excess [7] was 0.0999, the Bliss excess [8] was -0.0929 and the Bliss excess [9] was 0.0299. The Bliss excess [10] was -0.0732, the Bliss excess [11] was -0.0242 and the Bliss excess [12] was -0.0252. The Bliss excess [13] was -0.0498 and the “combination Emax” value [14] was 0.445.

For `CC1(C)CCC(CN2CCN(c3ccc(C(=O)NS(=O)(=O)c4ccc(NCC5CCOCC5)c([N+](=O)[O-])c4)c(Oc4cnc5[nH]ccc5c4)c3)CC2)=C(c2ccc(Cl)cc2)C1` [Venetoclax] + C[C@@H](Nc1cc(F)cc(F)c1)c1cc(C(=O)N(C)C)cc2c(=O)cc(N3CCOCC3)oc12 [AZD8186] (first compound max 1 µM, 7x7, partner max 3 µM), the Bliss excess [1] was 0.114, the Bliss excess [2] was -0.0551 and the Bliss excess [3] was -0.0239. It also gave a Bliss excess [4] of -0.0284, a Bliss excess [5] of 0.15 and a Bliss excess [6] of -0.0385. The Bliss excess [7] was 0.0654, the Bliss excess [8] was -0.0594 and the Bliss excess [9] was 0.0395. The Bliss excess [10] was 0.0566, the Bliss excess [11] was -0.0492 and the Bliss excess [12] was -0.0135. The Bliss excess [13] was -0.0923 and the “combination Emax” value [14] was 0.412.

Work on `CC1(C)CCC(CN2CCN(c3ccc(C(=O)NS(=O)(=O)c4ccc(NCC5CCOCC5)c([N+](=O)[O-])c4)c(Oc4cnc5[nH]ccc5c4)c3)CC2)=C(c2ccc(Cl)cc2)C1` [Venetoclax] + C=CCn1c(=O)c2cnc(Nc3ccc(N4CCN(C)CC4)cc3)nc2n1-c1cccc(C(C)(C)O)n1 [AZD1775] (first compound max 1 µM, partner max 1 µM) yielded a Bliss excess [1] of 0.201, a Bliss excess [2] of -0.0002 and a Bliss excess [3] of -0.0539. For the same molecule, the Bliss excess [4] was -0.0661, the Bliss excess [5] was 0.132 and the Bliss excess [6] was -0.0067. The Bliss excess [7] was 0.0689, the Bliss excess [8] was -0.0599 and the Bliss excess [9] was 0.0249. For the same molecule, the Bliss excess [10] was -0.075, the Bliss excess [11] was 0.0146 and the Bliss excess [12] was -0.0348. For the same molecule, the Bliss excess [13] was 0.0589 and the “combination Emax” value [14] was 0.612.
